Like-named read-outs stand apart in the source and are kept apart here.
What was measured:
[1] = target: T1, human orexin-1 receptor (Homo sapiens, UniProt O43613); experiment: Intracellular calcium measurements (FLIPR), orexin receptor antagonistic activity; assay type: cell-based; conditions: CHO cells expressing human orexin-1 receptor, 3 nM orexin-A, read-out: OX1 IC50
T1 construct: expressed in transfected cells; host or cells: Chinese hamster ovary (CHO) cells, G418 selection
T1 sequence (O43613 1-425): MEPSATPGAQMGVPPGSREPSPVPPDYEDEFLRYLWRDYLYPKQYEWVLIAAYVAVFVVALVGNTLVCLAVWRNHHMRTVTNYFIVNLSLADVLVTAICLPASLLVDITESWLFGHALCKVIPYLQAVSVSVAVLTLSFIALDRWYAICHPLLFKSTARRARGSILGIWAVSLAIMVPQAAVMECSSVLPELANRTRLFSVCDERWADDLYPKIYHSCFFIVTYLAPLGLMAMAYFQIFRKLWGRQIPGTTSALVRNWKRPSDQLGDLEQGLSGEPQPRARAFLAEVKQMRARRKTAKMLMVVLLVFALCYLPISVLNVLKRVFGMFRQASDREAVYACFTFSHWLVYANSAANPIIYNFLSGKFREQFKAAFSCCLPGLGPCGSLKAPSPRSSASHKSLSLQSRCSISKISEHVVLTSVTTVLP
Experimental: (§1) The orexin receptor antagonistic activity of the compounds of formula (I) is determined in accordance with one of the following experimental methods.
(§2) Intracellular Calcium Measurements:
(§3) Chinese hamster ovary (CHO) cells expressing the human orexin-1 receptor and the human orexin-2 receptor, respectively, are grown in culture medium (Ham F-12 with L-Glutamine) containing 300 μg/ml G418, 100 U/ml penicillin, 100 μg/ml streptomycin and 10% heat inactivated fetal calf serum (FCS). The cells are seeded at 20'000 cells/well into 384-well black clear bottom sterile plates (Greiner). The seeded plates are incubated overnight at 37° C. in 5% CO2.
(§4) Human orexin-A as an agonist is prepared as 1 mM stock solution in MeOH:water (1:1), diluted in HBSS containing 0.1% bovine serum albumin (BSA), NaHCO3:0.375 g/l and 20 mM HEPES for use in the assay at a final concentration of 3 nM.
(§5) Antagonists are prepared as 10 mM stock solution in DMSO, then diluted in 384-well plates, first in DMSO, then in HBSS containing 0.1% bovine serum albumin (BSA), NaHCO3: 0.375 g/l and 20 mM HEPES.
(§6) On the day of the assay, 50 μl of staining buffer (HBSS containing 1% FCS, 20 mM HEPES, NaHCO3: 0.375 g/l, 5 mM probenecid (Sigma) and 3 μM of the fluorescent calcium indicator fluo-4 AM (1 mM stock solution in DMSO, containing 10% pluronic) is added to each well.
(§7) The 384-well cell-plates are incubated for 50 min at 37° C. in 5% CO2 followed by equilibration at RT for 30-120 min before measurement.
(§8) Within the Fluorescent Imaging Plate Reader (FLIPR2 or FLIPR Tetra, Molecular Devices), antagonists are added to the plate in a volume of 10 μl/well, incubated for 10 min and finally 10 μl/well of agonist is added. Fluorescence is measured for each well at 1 second intervals, and the height of each fluorescence peak is compared to the height of the fluorescence peak induced by 3 nM orexin-A with vehicle in place of antagonist. For each antagonist, the IC50 value (the concentration of compound needed to inhibit 50% of the agonistic response) is determined. With the FLIPR Tetra, non-optimized and optimized conditions were used. Optimized conditions were achieved by adjustment of pipetting speed and cell splitting regime. The calculated IC50 values of the compounds may fluctuate depending on the daily cellular assay performance. Fluctuations of this kind are known to those skilled in the art.

[2] = target: T2, human orexin-2 receptor (Homo sapiens, UniProt O43614); experiment: as above; assay type: cell-based; conditions: CHO cells expressing human orexin-2 receptor, 3 nM orexin-A, read-out: OX2 IC50
T2 construct: expressed in transfected cells; host or cells: Chinese hamster ovary (CHO) cells, G418 selection
T2 sequence (O43614 1-444): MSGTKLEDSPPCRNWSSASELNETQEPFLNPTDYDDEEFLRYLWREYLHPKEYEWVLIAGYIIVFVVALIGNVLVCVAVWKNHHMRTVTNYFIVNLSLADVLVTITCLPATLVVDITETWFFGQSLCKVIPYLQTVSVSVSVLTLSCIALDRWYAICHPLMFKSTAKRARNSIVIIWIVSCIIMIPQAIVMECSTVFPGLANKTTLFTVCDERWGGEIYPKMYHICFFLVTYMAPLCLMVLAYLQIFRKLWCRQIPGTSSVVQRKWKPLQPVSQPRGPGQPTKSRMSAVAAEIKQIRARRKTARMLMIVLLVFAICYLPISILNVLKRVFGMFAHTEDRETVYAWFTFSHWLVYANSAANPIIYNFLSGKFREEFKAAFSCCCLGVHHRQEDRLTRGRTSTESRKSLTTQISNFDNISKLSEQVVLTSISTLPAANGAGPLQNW
Experimental: as §1, §2, §3, §4, §5, §6, §7, §8

[3] = FLIPR Tetra, optimized conditions
[4] = FLIPR Tetra, non-optimized conditions

Q: For `Cn1cc(C(=O)NC[C@@H]2[C@H]3C[C@H]3CN2C(=O)c2nc(N)sc2-c2cccc(F)c2)c2ccccc21` [Example 115, 1-Methyl-1H-indole-3-carboxylic Acid{(1S,2S,5R)-3-[2-amino-5-(3-fluoro-phenyl)-thiazole-4-carbonyl]-3-aza-bicyclo[3.1.0]hex-2-ylmethyl}-amide], which IC50 ([1]; FLIPR2) is on record?
A: 178 nM

Q: And the IC50 ([2]; FLIPR2)?
A: 48 nM

Q: Which IC50 ([1]; FLIPR2) does the source give for `CCn1nc(C)cc1C(=O)NC[C@@H]1[C@H]2C[C@H]2CN1C(=O)c1nc(C)sc1-c1cccc(Cl)c1` [Example 80, 2-Ethyl-5-methyl-2H-pyrazole-3-carboxylic Acid{(1S,2S,5R)-3-[5-(3-chloro-phenyl)-2-methyl-thiazole-4-carbonyl]-3-aza-bicyclo[3.1.0]hex-2-ylmethyl}-amide] here?
A: 29 nM

Q: What about the IC50 ([2]; FLIPR2) of the same molecule?
A: 10 nM

Q: With `Cc1nc2sccn2c1C(=O)NC[C@@H]1[C@H]2C[C@H]2CN1C(=O)c1ccccc1C1CCCCC1` [Example 31, 6-Methyl-imidazo[2,1-b]thiazole-5-carboxylic acid[(1S,2S,5R)-3-(2-cyclohexyl-benzoyl)-3-aza-bicyclo[3.1.0]hex-2-ylmethyl]-amide] as the molecule, how does the IC50 ([1]; FLIPR2) read?
A: 960 nM

Q: And the IC50 ([2]; FLIPR2)?
A: 167 nM

Q: For `Cc1cccc(-c2sc(C)nc2C(=O)N2C[C@@H]3C[C@@H]3[C@H]2CNC(=O)c2ccn3ccsc23)c1` [Example 260, Pyrrolo[2,1-b]thiazole-7-carboxylic acid [(1S,2S,5R)-3-(2-methyl-5-m-tolyl-thiazole-4-carbonyl)-3-aza-bicyclo[3.1.0]hex-2-ylmethyl]-amide], which IC50 [1, 3] is on record?
A: 16 nM

Q: And the IC50 [2, 3]?
A: 31 nM

Q: Which results are given for `Cc1cccc(-c2sc(C)nc2C(=O)N2C[C@@H]3C[C@@H]3[C@H]2CNC(=O)c2cccc(C(F)(F)F)c2)c1` [Example 45, N-[(1S,2S,5R)-3-(2-Methyl-5-m-tolyl-thiazole-4-carbonyl)-3-aza-bicyclo[3.1.0]hex-2-ylmethyl]-3-trifluoromethyl-benzamide]?
A: IC50 ([1]; FLIPR2): 110 nM; IC50 ([2]; FLIPR2): 61 nM

Q: What does the source list for `Cc1c(C(=O)NC[C@@H]2[C@H]3C[C@H]3CN2C(=O)c2nc(N)sc2-c2cccc(F)c2)sc2nccn12` [Example 124, 3-Methyl-imidazo[2,1-b]thiazole-2-carboxylic Acid{(1S,2S,5R)-3-[2-amino-5-(3-fluoro-phenyl)-thiazole-4-carbonyl]-3-aza-bicyclo[3.1.0]hex-2-ylmethyl}-amide]?
A: IC50 ([1]; FLIPR2): 7030 nM; IC50 ([2]; FLIPR2): 12 nM

Q: Which results are given for `Cc1cccc(-c2sc(C)nc2C(=O)N2C[C@@H]3C[C@@H]3[C@H]2CNC(=O)c2cccc3ccccc23)c1` [Example 52, Naphthalene-1-carboxylic acid[(1S,2S,5R)-3-(2-methyl-5-m-tolyl-thiazole-4-carbonyl)-3-aza-bicyclo[3.1.0]hex-2-ylmethyl]-amide]?
A: IC50 ([1]; FLIPR2): 155 nM; IC50 ([2]; FLIPR2): 228 nM

Q: Which IC50 [1, 4] does the source give for `Cc1cccc(-c2sc(C)nc2C(=O)N2C[C@@H]3C[C@@H]3[C@H]2CNc2ncc(Br)cn2)c1` [Example 244, {(1S,2S,5R)-2-[(5-Bromo-pyrimidin-2-ylamino)-methyl]-3-aza-bicyclo[3.1.0]hex-3-yl}-(2-methyl-5-m-tolyl-thiazol-4-yl)-methanone] here?
A: 51 nM

Q: What about the IC50 [2, 4] of the same molecule?
A: 639 nM

Q: How did the IC50 ([1]; FLIPR2) turn out when `Cc1cccc(-c2sc(C)nc2C(=O)N2C[C@@H]3C[C@@H]3[C@H]2CNC(=O)c2cccc3c2N(C)CCO3)c1` [Example 177, 4-Methyl-3,4-dihydro-2H-benzo[1,4]oxazine-5-carboxylic Acid[(1S,2S,5R)-3-(2-methyl-5-m-tolyl-thiazole-4-carbonyl)-3-aza-bicyclo[3.1.0]hex-2-ylmethyl]-amide] was run?
A: 691 nM

Q: And the IC50 ([2]; FLIPR2)?
A: 88 nM

Q: `Cc1nc(C(=O)N2C[C@@H]3C[C@@H]3[C@H]2CNC(=O)c2c(C)nc3sccn23)c(-c2ccccc2C)s1` [Example 11, 6-Methyl-imidazo[2,1-b]thiazole-5-carboxylic acid[(1S,2S,5R)-3-(2-methyl-5-o-tolyl-thiazole-4-carbonyl)-3-aza-bicyclo[3.1.0]hex-2-ylmethyl]-amide] was tested. Which IC50 ([1]; FLIPR2) did it give?
A: 14 nM

Q: And the IC50 ([2]; FLIPR2)?
A: 66 nM

Q: How did the IC50 ([1]; FLIPR2) turn out when `Cn1nc(C(=O)NC[C@@H]2[C@H]3C[C@H]3CN2C(=O)c2nc(N)sc2-c2cccc(F)c2)c2ccccc21` [Example 117, 1-Methyl-1H-indazole-3-carboxylic Acid{(1S,2S,5R)-3-[2-amino-5-(3-fluoro-phenyl)-thiazole-4-carbonyl]-3-aza-bicyclo[3.1.0]hex-2-ylmethyl}-amide] was run?
A: 80 nM

Q: And the IC50 ([2]; FLIPR2)?
A: 8 nM

Q: What does the source list for `Cc1nc(-c2cccc(F)c2)c(C(=O)N2C[C@@H]3C[C@@H]3[C@H]2CNC(=O)c2c(C)nc3sccn23)s1` [Example 37, 6-Methyl-imidazo[2,1-b]thiazole-5-carboxylic acid{(1S,2S,5R)-3-[4-(3-fluoro-phenyl)-2-methyl-thiazole-5-carbonyl]-3-aza-bicyclo[3.1.0]hex-2-ylmethyl}-amide]?
A: IC50 ([1]; FLIPR2): 85 nM; IC50 ([2]; FLIPR2): 35 nM

Q: With `Nc1nc(C(=O)N2C[C@@H]3C[C@@H]3[C@H]2CNC(=O)c2cnc3ccccn23)c(-c2cccc(F)c2)s1` [Example 118, Imidazo[1,2-a]pyridine-3-carboxylic Acid{(1S,2S,5R)-3-[2-amino-5-(3-fluoro-phenyl)-thiazole-4-carbonyl]-3-aza-bicyclo[3.1.0]hex-2-ylmethyl}-amide] as the molecule, how does the IC50 ([1]; FLIPR2) read?
A: 225 nM

Q: And the IC50 ([2]; FLIPR2)?
A: 41 nM

Q: What does the source list for `Nc1nc(C(=O)N2C[C@@H]3C[C@@H]3[C@H]2CNC(=O)c2nccc3ccccc23)c(-c2cccc(F)c2)s1` [Example 112, Isoquinoline-1-carboxylic Acid{(1S,2S,5R)-3-[2-amino-5-(3-fluoro-phenyl)-thiazole-4-carbonyl]-3-aza-bicyclo[3.1.0]hex-2-ylmethyl}-amide]?
A: IC50 ([1]; FLIPR2): 115 nM; IC50 ([2]; FLIPR2): 12 nM

Q: Which IC50 ([1]; FLIPR2) does the source give for `Cc1nc2sccn2c1C(=O)NC[C@@H]1[C@H]2C[C@H]2CN1C(=O)c1ccccc1-c1csc(N)n1` [Example 24, 6-Methyl-imidazo[2,1-b]thiazole-5-carboxylic acid{(1S,2S,5R)-3-[2-(2-amino-thiazol-4-yl)-benzoyl]-3-aza-bicyclo[3.1.0]hex-2-ylmethyl}-amide] here?
A: 102 nM

Q: What about the IC50 ([2]; FLIPR2) of the same molecule?
A: 647 nM

Q: `Cc1cccc(-c2sc(C)nc2C(=O)N2C[C@@H]3C[C@@H]3[C@H]2CNC(=O)c2c(C)noc2C)c1` [Example 51, 3,5-Dimethyl-isoxazole-4-carboxylic Acid[(1S,2S,5R)-3-(2-methyl-5-m-tolyl-thiazole-4-carbonyl)-3-aza-bicyclo[3.1.0]hex-2-ylmethyl]-amide] was tested. Which IC50 ([1]; FLIPR2) did it give?
A: 81 nM

Q: And the IC50 ([2]; FLIPR2)?
A: 41 nM

Q: For `Cc1cccc(-c2sc(C)nc2C(=O)N2C[C@@H]3C[C@@H]3[C@H]2CNC(=O)c2cc(Br)ccc2Cl)c1` [Example 148, 5-Bromo-2-chloro-N-[(1S,2S,5R)-3-(2-methyl-5-m-tolyl-thiazole-4-carbonyl)-3-aza-bicyclo[3.1.0]hex-2-ylmethyl]-benzamide], which IC50 ([1]; FLIPR2) is on record?
A: 1080 nM

Q: What about the IC50 ([2]; FLIPR2) of the same molecule?
A: 102 nM

Source: patent publication US8063099B2, “Trans-3-aza-bicyclo[3.1.0]hexane derivatives” (Actelion Pharmaceuticals Ltd., priority 2007, dated 2011)
